Patent US20130059866A1, “NOVEL PIPERIDINO-DIHYDROTHIENOPYRIMIDINE SULFOXIDES AND THEIR USE FOR TREATING COPD AND ASTHMA” (BOEHRINGER INGELHEIM INTERNATIONAL GMBH, priority 2011, published 2013)

Experiments:
PDE4B = target: T1, PDE4B (Homo sapiens, UniProt Q07343); experiment: PDE4B Scintillation Proximity (SPA) Assay; assay type: biochemical; conditions: PDE4B active site fragment amino acids 152-484, [3H]cAMP, 30° C., one hour; read-out: Experimentally determined IC50-value for PDE4B inhibition
T1 construct: active site fragment comprising the amino acids 152-484
T1 sequence (Q07343 324-656): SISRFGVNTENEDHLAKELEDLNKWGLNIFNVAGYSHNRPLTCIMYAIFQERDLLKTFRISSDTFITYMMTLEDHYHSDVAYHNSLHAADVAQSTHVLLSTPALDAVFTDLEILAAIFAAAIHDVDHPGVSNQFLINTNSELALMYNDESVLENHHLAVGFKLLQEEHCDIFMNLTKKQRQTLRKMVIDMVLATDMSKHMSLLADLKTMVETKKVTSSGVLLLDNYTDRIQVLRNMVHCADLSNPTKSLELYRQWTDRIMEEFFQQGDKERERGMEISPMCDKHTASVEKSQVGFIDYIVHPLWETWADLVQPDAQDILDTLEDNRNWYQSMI
Description: The IC50-values of the compounds of the invention (Example Compounds 1 and 2) and of the above-mentioned prior art compounds A to D with respect to their PDE4B-inhibiting ability have been determined with a Scintillation Proximity (SPA) Assay (GE Healthcare, No. TRKQ7090).
The Scintillation Proximity (SPA) Assay is based on the detection of the different affinities of the cyclic 3′-5′-adenosine monophosphate (cAMP, low affinity) and the linear 5′-adenosine monophosphate (AMP, high affinity) to yttrium-silicate-scintilator beads. The cAMP-specific phosphodiesterase (PDE) PDE4B cleaves the 3′-phosphodiester bond of the tritium-labelled-[^3H]cAMP to the [^3H]5′-AMP. This [^3H]5′-AMP associates with the scintillator beads because of their higher affinity and causes scintillations (light flashes) which can be measured in a Wallac Microbeta Scintillation Counter.
10 μl of a [^3H]cAMP-solution (0.05 μCi in H2O, 10-30 Ci/mmol) are added to 89 μl of a PDE4B-enzyme-solution (active site fragment comprising the amino acids 152-484; 0.15-0.18 ng) in assay buffer (50 mM Tris HCl pH 7.5; 8.3 mM MgCl2; 1.7 mM ethylene glycol tetraacetic acid (EGTA); 0.25 mg/ml bovine serum albumin (BSA)) and this mixture is incubated at 30° C. for one hour
a) without the compound to be tested (in the presence of 1 μl dimethylsulfoxide (DMSO), corresponding to 1% DMSO) and b) in the presence of the compound to be tested in a concentration of 125 μM, 25 μM, 5 μM, 1 μM, 200 nM, 40 nM, 8 nM, 1.6 nM, 0.32 nM, 0.064 nM, 0.0128 nM (dilution series in 5er-steps beginning from 125 μM until 0.0128 nM, in the presence of 1% DMSO).
After this incubation the reaction is stopped by the addition of 50 μl of bead-solution (500 mg beads/35 ml H2O, 18 mM zinc sulfate). In the following 45 minutes the beads have the opportunity to form a sediment. After that the scintillations are measured in the scintillation counter. If the tested compound is able to inhibit the enzymatic activity of the PDE4B-enzyme, less [^3H]AMP depending on the concentration of the tested compound is produced and less scintillations are measurable. […] The IC50-value stands for the compound concentration at which the PDE4B enzyme activity is inhibited to a half maximal value. Therefore the lower the IC50-value is the better is the PDE4B inhibition.

[1] = tested on: LPS-induced neutrophil influx into bronchoalveolar lavage fluid of male Wistar rats; experiment: Inhibition of LPS-induced neutrophil influx into bronchoalveolar lavage fluid (LPS-induced lung inflammation model); assay type: in vivo; conditions: ED50 found in efficacy studies in the rat
Description: The anti-inflammatory activity of Examples 1 and 2 and of Prior art compounds A and D was assessed in an in vivo LPS-induced lung inflammation model in rats.
As a measure of the pharmacological potency of the above mentioned compounds the half-maximal effective dose (ED50) in regard to the inhibition of lipopolysaccharide-induced (LPS-induced) neutrophil influx into the bronchoalveolar lavage fluid (BALF) was determined by assessing the dose response relationship. Bacterial endotoxins (lipopolysaccharides [LPS]) are components of the outer bacterial cell membrane which play an important role in the pathogenesis of infections with gram-negative bacteria. It is known that inhalation of such aerosolized LPS induces a dose-dependent increase in neutrophils to lung tissues and airspaces in rats which may be detected by analyzing the amount of neutrophils in the bronchoalveolar lavage fluid (BALF). […]
Determination of neutrophil content of the BALF was performed using an ADVIA 120 blood hemacytometer (Bayer Diagnostics). Neutrophil data were normalised (Positive Control (=LPS treatment alone)=100%, Negative Control (no LPS treatment, administration of “vehicle only”)=0%) and expressed as percent of LPS control. The ED50 was calculated using a nonlinear fit (with the Graph Pad Prism software and a sigmoidal dose response fit). […]

conscious rats [2] = experiment: Gastric emptying in conscious rats (barium sulfate test meal); assay type: in vivo, rat
Description: (§1) In order to evaluate whether the compounds of the present invention lead to gastrointestinal side effects the compounds of the invention have been administered to rats 30 minutes before the rats were fed with a test meal comprising barium sulfate. After that it was tested whether gastric emptying and/or gastrointestinal transit in these rats was affected by the presence of these compounds.
The effects of the compounds Example 1 and Example 2 on gastric emptying and gastrointestinal transit in conscious rats has been investigated as described below. Wistar rats of both sexes weighing 130-160 g (ages: male 7 wk, female 8 wk) were used. The animals are obtained from an approved local distributor, a minimum of four days quarantine is required before use, during which time the animals are maintained under routine animal care procedures. Groups of up to 5 animals are housed in cages in a room with controlled temperature and humidity and a light/dark cycle with the lights on from 6 a.m. to 6 p.m. The animals have access to normal rodent chow and water ad libitum. The animals are transported to the laboratory on the day of experimentation. Gastric emptying as well as small intestinal propulsion are determined using a barium sulfate test meal.
Five rats Crl:WI(Han) of each sex (n=10) were used. The animals were deprived of food 17 h prior to the experiment but allowed free access to water. The drug under investigation (drug was suspended to the concentration of 10 ml/kg body weight in 0.5% Natrosol solution) or the negative control (vehicle alone was given 10 ml/kg body weight) was administered 30 min (p.o.) before the test meal at doses calculated to be 3-fold, 10-fold or 30-fold the ED50 found in efficacy studies in the rat.
The test meal (suspension of 7.5 g barium sulfate in 10 ml salt-free water) is given orally by gavage at a dose of 2 ml/100 g body weight. Thirty minutes after the administration of the test meal the animals were killed in deep isoflurane anaesthesia by cervical dislocation. The stomach and the intestine were then exposed by laparatomy and removed.
The removed stomach was weighed, then incised, the contents removed and the empty stomach is weighed again.
The gastric content was calculated from the weight difference between the filled and empty stomach and normalized to 100 g body weight. Thus, an increase in weight difference indicated an impaired gastric emptying, whereas a decrease in weight difference indicated an enhanced gastric emptying.
Data are expressed as mean±standard deviation (SD). For each dose, comparisons were performed using an analysis of variance (ANOVA) and a post hoc Dunnett test to compare the various groups to the controls when the ANOVA was significant. p<0.05 was considered significant.

conscious rats [3] = experiment: Gastrointestinal (intestinal) transit in conscious rats (barium sulfate test meal); assay type: in vivo, rat; conditions: all tested doses up to the 30-fold ED50 dose p.o.
Description: as §1
The effects of the compounds Example 1 and Example 2 on gastric emptying and gastrointestinal transit in conscious rats has been investigated as described below. Wistar rats of both sexes weighing 130-160 g (ages: male 7 wk, female 8 wk) were used. […] Gastric emptying as well as small intestinal propulsion are determined using a barium sulfate test meal. […]
The length of gut traversed with barium sulfate in relation to the whole length of the gut is determined by direct measurements using a ruler.
The length of gut traversed with barium sulphate (as judged by visual inspection) in relation to the whole length of the gut (from the pylorus to the rectum) is determined by direct measurements using a ruler.
Intestinal transit is calculated as the percentage movement of barium sulphate in the intestine in relation to the whole length of the gut. […]
Data are expressed as mean±standard deviation (SD). […]

SMILES | IC50 (PDE4B) [nM] | intestinal transit vs negative control (conscious rats [3]) | ED50 as restated in the dose table of the gastrointestinal study [1] | also measured
[O-][S+]1CCc2nc(N3CCC(c4ccc(Cl)cc4)CC3)nc(NC3(CO)CCC3)c21 (single isomer, unassigned) [Example 1] | 4.3 | no significant differences | (ED50 = 0.31 mg/kg BW | gastric emptying vs negative control (conscious rats [2]; 3-fold ED50 dose p.o., 30 min before test meal): no relevant differences; gastric emptying vs negative control (conscious rats [2]; 10-fold ED50 dose p.o., 30 min before test meal): no relevant differences; gastric emptying vs negative control (weight difference per body weight) (conscious rats [2]; 30-fold ED50 dose p.o., 30 min before test meal): only a very moderate enhancement
[O-][S+]1CCc2nc(N3CCC(c4ncc(Cl)cn4)CC3)nc(NC3(CO)CCC3)c21 (single isomer, unassigned) [Example 2] | 7.2 | no relevant differences | (ED50 = 0.1 mg/kg BW | gastric emptying vs negative control (conscious rats [2]; all tested doses (3-, 10-, 30-fold ED50) p.o.): no relevant differences
[O-][S+]1CCc2nc(N3CCC(c4ccc(Cl)cc4)CC3)nc(NC3(CO)CC3)c21 (centres unmarked) [Prior art compound A] | 3.3 | – | – | –

Now from value to compound, other results behind:

IC50 (PDE4B) [nM] | intestinal transit vs negative control (conscious rats [3]) | SMILES | ED50 as restated in the dose table of the gastrointestinal study [1] | also measured
66 | – | [O-][S+]1CCc2nc(N3CCC(c4c[nH]cn4)CC3)nc(NC3(CO)CC3)c21 (centres unmarked) [Prior art compound B] | – | –
44 | – | [O-][S+]1CCc2nc(N3CCC(c4ccncc4)CC3)nc(NC3(CO)CC3)c21 (centres unmarked) [Prior art compound C] | – | –
7.3 | – | [O-][S+]1CCc2nc(N3CCC(c4cccc(Cl)c4)CC3)nc(NC3(CO)CC3)c21 (centres unmarked) [Prior art compound D] | – | –
